Measured values reported in paper PMC9238271, “The quorum sensing peptide EntF* promotes colorectal cancer metastasis in mice: a new factor in the host-microbiome interaction” (BMC Biology, 2022).

Test: EntF* in serum of untreated mice, RP-UPLC-TQ-MS (LC1-MS1)
Format: in vivo, C57BL/6 mice
Conditions: for EntF* concentration (pM) LC1-MS1: mouse serum, LOQ = 100 pM, below: set at 0
Procedure: After a 30 min incubation on ice, blood was centrifuged at 1000g for 10 min at room temperature. The supernatant (serum) was then transferred to fresh tubes and stored at − 35 °C until use.
Fifty microliters of serum were mixed with 150 μL 0.5% formic acid in acetonitrile. After sonication for 5 min, samples were vortexed for 5 s, then heated for 30 s at 100 °C. The solution was vortexed and centrifuged for 20 min at 20,000g at 4 °C. The supernatant was purified using solid phase extraction (SPE) on HyperSep C18 plates (Thermo Fisher Scientific, Belgium), previously conditioned with acetonitrile and equilibrated with 75% acetonitrile in water, containing 0.375% formic acid. After loading 150 μL of each sample, 120 μL eluent were collected and organic solvents evaporated using nitrogen (1 L/min) for 5 min. The resulting samples were further diluted with 30 μL of BSA-based anti-adsorption solution, and analyzed by LC-MS.
EntF* was detected and quantified on a Waters Acquity® UPLC H-class system, connected to a Waters Xevo™ TQ-S triple quadrupole mass spectrometer with electrospray ionization (operated in positive ionization mode). Autosampler tray and column oven were kept at 10 ± 5 °C and 60 ± 5 °C, respectively. Chromatographic separation was achieved on a Waters Acquity® UPLC BEH Peptide C18 column (300 Å, 1.7 μm, 2.1 mm × 100 mm). The mobile phases consisted of 93/2/5 water/acetonitrile/DMSO (V/V/V) containing 0.1% formic acid (mobile phase A) and 2/93/5 water/acetonitrile/DMSO (V/V/V) containing 0.1% formic acid (mobile phase B), and the flow rate was set to 0.5 mL/min. A 10-μL aliquot from each sample was injected. The gradient program started with 80% of mobile phase A for 1 min, followed by a linear gradient to 40% of mobile phase A for 3.5 min. Gradient was then changed to 14.2% mobile phase A at 5 min, followed by a 1 min equilibration, before starting conditions were applied. EntF* retention time was between 4.25 and 4.45 min.
An optimized capillary voltage of 3.00 kV, a cone voltage of 20.00 V, and a source offset of 50.0 V were used. Acquisition was done in the MRM mode. The selected precursor ion for EntF* was m/z 865.7 with two selected product ions at m/z 202.08 (36 eV, b2 fragment) as quantifier and m/z 315.17 (31 eV, b3 fragment) as qualifier.
A sample was considered positive for the presence of EntF* when the following criteria were met: correct retention time, quantifier/qualifier peak area ratio between 2.0 and 4.0, both quantifier and qualifier peaks with a signal-to-noise ratio > 3.0, and a peptide concentration > 100 pM.

## CC(C)C[C@@H]1NC(=O)[C@H](CO)NC(=O)[C@H](Cc2ccccc2)NC(=O)[C@H](C(C)C)NC(=O)[C@@H](NC(=O)[C@H](CCC(=O)O)NC(=O)[C@@H](NC(=O)[C@H](CC(C)C)NC(=O)[C@H](CC(N)=O)NC(=O)[C@@H](N)CO)C(C)C)CSSC[C@@H](C(=O)N[C@@H](CC(N)=O)C(=O)O)NC(=O)[C@H](CCCCN)NC(=O)[C@H](CCCCN)NC(=O)[C@H](Cc2ccccc2)NC1=O (single isomer, unassigned) [EntF*]
All mice average (<LoD => 0)
  in vivo exposure, average: 0.019 nM
All mice average (<LoD => 0), time 1440 min
  in vivo exposure, Exposure: 27.5 nM·min
Natural in vivo exposure, average of all samples, < LOD: set at 0 pM
  Concentration (pM), average: 19.1243 pM
Natural in vivo exposure, sample 10809_069_205
  Concentration (pM): 107.331 pM
Natural in vivo exposure, sample 10809_069_269
  Concentration (pM): 431.362 pM
Natural in vivo exposure, sample 10809_069_276
  Concentration (pM): 567.385 pM
Natural in vivo exposure, sample 10809_069_296
  Concentration (pM): 136.998 pM
All samples (n=35), samples < LOQ counted as zero
  EntF* concentration in mouse serum, Average (pM), All: 328.6 pM
Endogenous level, six of 35 untreated C57BL/6 mice, LOQ 100 pM, LC1-MS1
  amount of EntF* detected in the serum of positive mice: above 100 pM
Sample 20181011S4
  EntF* concentration (pM) LC1-MS1: 389 pM
Sample 20181011S7
  EntF* concentration (pM) LC1-MS1: 2146 pM
Sample 20181011S9
  EntF* concentration (pM) LC1-MS1: 3127 pM
Sample 20181011S12
  EntF* concentration (pM) LC1-MS1: 2489 pM
Sample 20181011S16
  EntF* concentration (pM) LC1-MS1: 3148 pM
Sample 20181011S18
  EntF* concentration (pM) LC1-MS1: 200 pM
